Reference: PubChem BioAssay (NCI)
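Protocol summary: plate cells (96-well), add compound at 5 concentrations, incubate 48 h, interpolate endpoints linearly. TGI: concentration producing complete growth inhibition.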

What was measured:
Assay in all cases: inhibition of tumour cell growth, NCI panel, 48 h
SNB-75 CNS = test system: SNB-75 CNS
UO-31 renal = test system: UO-31 renal
NCI/ADR-RES ovarian = test system: NCI/ADR-RES ovarian
786-0 renal = test system: 786-0 renal
SW-620 colon = test system: SW-620 colon
T-47D breast = test system: T-47D breast
RXF 393 renal = test system: RXF 393 renal
NCI-H460 lung = test system: NCI-H460 lung
OVCAR-4 ovarian = test system: OVCAR-4 ovarian
ACHN renal = test system: ACHN renal
HCT-15 colon = test system: HCT-15 colon
SNB-19 CNS = test system: SNB-19 CNS
HOP-62 NSCLC = test system: HOP-62 NSCLC
KM12 colon = test system: KM12 colon
SR leukemia = test system: SR leukemia
NCI-H23 lung = test system: NCI-H23 lung
HOP-92 NSCLC = test system: HOP-92 NSCLC
MOLT-4 leukemia = test system: MOLT-4 leukemia
CCRF-CEM leukemia = test system: CCRF-CEM leukemia
TK-10 renal = test system: TK-10 renal
MALME-3M melanoma = test system: MALME-3M melanoma
UACC-257 melanoma = test system: UACC-257 melanoma
CAKI-1 renal = test system: CAKI-1 renal
BT-549 breast = test system: BT-549 breast
NCI-H522 lung = test system: NCI-H522 lung
SN12C renal = test system: SN12C renal
A549 NSCLC = test system: A549 NSCLC
IGROV1 ovarian = test system: IGROV1 ovarian
SK-MEL-28 melanoma = test system: SK-MEL-28 melanoma
HT29 colon = test system: HT29 colon
U251 CNS = test system: U251 CNS
UACC-62 melanoma = test system: UACC-62 melanoma
NCI-H226 lung = test system: NCI-H226 lung
SF-268 CNS = test system: SF-268 CNS
SF-539 CNS = test system: SF-539 CNS
LOX IMVI melanoma = test system: LOX IMVI melanoma
COLO 205 colon = test system: COLO 205 colon
OVCAR-8 ovarian = test system: OVCAR-8 ovarian
HCC-2998 colon = test system: HCC-2998 colon
SK-OV-3 ovarian = test system: SK-OV-3 ovarian
MDA-N = test system: MDA-N
PC-3 prostate = test system: PC-3 prostate
HCT-116 colon = test system: HCT-116 colon
SK-MEL-2 melanoma = test system: SK-MEL-2 melanoma
OVCAR-5 ovarian = test system: OVCAR-5 ovarian
MDA-MB-435 = test system: MDA-MB-435
SF-295 CNS = test system: SF-295 CNS
HL-60(TB) leukemia = test system: HL-60(TB) leukemia
M14 melanoma = test system: M14 melanoma
HS 578T breast = test system: HS 578T breast
RPMI-8226 leukemia = test system: RPMI-8226 leukemia
EKVX NSCLC = test system: EKVX NSCLC
K-562 leukemia = test system: K-562 leukemia
SK-MEL-5 melanoma = test system: SK-MEL-5 melanoma
MCF7 breast = test system: MCF7 breast
OVCAR-3 ovarian = test system: OVCAR-3 ovarian
DU-145 prostate = test system: DU-145 prostate
MDA-MB-231 breast = test system: MDA-MB-231 breast
A498 renal = test system: A498 renal

Work on C#CCSc1cnc2ccccc2c1Sc1c[nH]c2ccccc2c1=O yielded a TGI (SNB-75 CNS) of 83.3 µM, a TGI (UO-31 renal) of 5.99 µM and a TGI (NCI/ADR-RES ovarian) of over 100 µM. The TGI (786-0 renal) was 44.9 µM, the TGI (SW-620 colon) was over 100 µM and the TGI (T-47D breast) was 42.5 µM. For the same molecule, the TGI (RXF 393 renal) was 36.1 µM, the TGI (NCI-H460 lung) was 59.8 µM and the TGI (OVCAR-4 ovarian) was over 100 µM. For the same molecule, the TGI (ACHN renal) was 36.7 µM, the TGI (HCT-15 colon) was over 100 µM and the TGI (SNB-19 CNS) was over 100 µM. The TGI (HOP-62 NSCLC) was over 100 µM, the TGI (KM12 colon) was 65 µM and the TGI (SR leukemia) was over 100 µM. The TGI (NCI-H23 lung) was over 100 µM, the TGI (HOP-92 NSCLC) was 61.2 µM and the TGI (MOLT-4 leukemia) was over 100 µM. For the same molecule, the TGI (CCRF-CEM leukemia) was over 100 µM, the TGI (TK-10 renal) was over 100 µM and the TGI (MALME-3M melanoma) was over 100 µM. It also gave a TGI (UACC-257 melanoma) of 64.4 µM, a TGI (CAKI-1 renal) of over 100 µM and a TGI (BT-549 breast) of over 100 µM. It also gave a TGI (NCI-H522 lung) of 29.1 µM, a TGI (SN12C renal) of 40.7 µM and a TGI (A549 NSCLC) of over 100 µM. The TGI (IGROV1 ovarian) was 20 µM, the TGI (SK-MEL-28 melanoma) was over 100 µM and the TGI (HT29 colon) was over 100 µM. The TGI (U251 CNS) was 50 µM, the TGI (UACC-62 melanoma) was 54.1 µM and the TGI (NCI-H226 lung) was 89.9 µM. For the same molecule, the TGI (SF-268 CNS) was over 100 µM, the TGI (SF-539 CNS) was over 100 µM and the TGI (LOX IMVI melanoma) was 38.9 µM. For the same molecule, the TGI (COLO 205 colon) was over 100 µM, the TGI (OVCAR-8 ovarian) was over 100 µM and the TGI (HCC-2998 colon) was 38.2 µM. The TGI (SK-OV-3 ovarian) was over 100 µM, the TGI (MDA-N) was over 100 µM and the TGI (PC-3 prostate) was over 100 µM. For the same molecule, the TGI (HCT-116 colon) was 32.5 µM, the TGI (SK-MEL-2 melanoma) was 53.5 µM and the TGI (OVCAR-5 ovarian) was over 100 µM. The TGI (MDA-MB-435) was over 100 µM, the TGI (SF-295 CNS) was over 100 µM and the TGI (HL-60(TB) leukemia) was 88.9 µM. For the same molecule, the TGI (M14 melanoma) was over 100 µM, the TGI (HS 578T breast) was over 100 µM and the TGI (RPMI-8226 leukemia) was over 100 µM. For the same molecule, the TGI (EKVX NSCLC) was over 100 µM, the TGI (K-562 leukemia) was over 100 µM and the TGI (SK-MEL-5 melanoma) was 44.8 µM. For the same molecule, the TGI (MCF7 breast) was over 100 µM, the TGI (OVCAR-3 ovarian) was over 100 µM and the TGI (DU-145 prostate) was over 100 µM. The TGI (MDA-MB-231 breast) was over 100 µM.
With O=C(COC(=O)c1ccccc1)c1ccc(Br)cc1 the TGI (SNB-75 CNS) was 29.9 µM, the TGI (UO-31 renal) was 6.08 µM and the TGI (NCI/ADR-RES ovarian) was 61.9 µM. The TGI (SW-620 colon) was 21.8 µM, the TGI (T-47D breast) was 62.6 µM and the TGI (RXF 393 renal) was 11.6 µM. The TGI (NCI-H460 lung) was 37.2 µM, the TGI (ACHN renal) was 65.9 µM and the TGI (HCT-15 colon) was 35.1 µM. The TGI (SNB-19 CNS) was 30.5 µM, the TGI (HOP-62 NSCLC) was 43.8 µM and the TGI (KM12 colon) was 37 µM. It also gave a TGI (SR leukemia) of 7.11 µM, a TGI (NCI-H23 lung) of 49.2 µM and a TGI (HOP-92 NSCLC) of 30.5 µM. It also gave a TGI (MOLT-4 leukemia) of 15 µM, a TGI (CCRF-CEM leukemia) of 25.9 µM and a TGI (TK-10 renal) of 10.8 µM. For the same molecule, the TGI (MALME-3M melanoma) was 29.4 µM, the TGI (UACC-257 melanoma) was 28.8 µM and the TGI (CAKI-1 renal) was 6.44 µM. For the same molecule, the TGI (BT-549 breast) was 21.1 µM, the TGI (SN12C renal) was 29.4 µM and the TGI (A549 NSCLC) was 40.5 µM. For the same molecule, the TGI (IGROV1 ovarian) was 3.59 µM, the TGI (SK-MEL-28 melanoma) was 32.1 µM and the TGI (A498 renal) was 29.5 µM. For the same molecule, the TGI (HT29 colon) was 46.3 µM, the TGI (U251 CNS) was 27.3 µM and the TGI (UACC-62 melanoma) was 26.1 µM. For the same molecule, the TGI (SF-268 CNS) was 34.4 µM, the TGI (SF-539 CNS) was 28.4 µM and the TGI (LOX IMVI melanoma) was 11.2 µM. The TGI (COLO 205 colon) was 26.5 µM, the TGI (OVCAR-8 ovarian) was over 100 µM and the TGI (HCC-2998 colon) was 26.9 µM. For the same molecule, the TGI (SK-OV-3 ovarian) was 33.3 µM, the TGI (MDA-N) was 16.4 µM and the TGI (PC-3 prostate) was 38.7 µM. The TGI (HCT-116 colon) was 30.2 µM, the TGI (SK-MEL-2 melanoma) was 28.2 µM and the TGI (OVCAR-5 ovarian) was 22.8 µM. It also gave a TGI (MDA-MB-435) of 20.4 µM, a TGI (SF-295 CNS) of 32 µM and a TGI (HL-60(TB) leukemia) of 48.2 µM. For the same molecule, the TGI (M14 melanoma) was 31 µM, the TGI (HS 578T breast) was 29.6 µM and the TGI (RPMI-8226 leukemia) was 16.9 µM. It also gave a TGI (EKVX NSCLC) of 28 µM, a TGI (K-562 leukemia) of over 100 µM and a TGI (SK-MEL-5 melanoma) of 27.5 µM. For the same molecule, the TGI (MCF7 breast) was 24.8 µM, the TGI (OVCAR-3 ovarian) was over 100 µM and the TGI (DU-145 prostate) was 64.6 µM. For the same molecule, the TGI (MDA-MB-231 breast) was 30.5 µM.
